# Assay results as given in patent US9976170B2, “Method for evaluating bacterial cell wall integrity” (UNIVERSIDAD AUTONOMA DE MADRID, priority 2011, dated 2018).
# Key:
# Type in all cases: cell-based
# [1] = test system: Enterococcus faecium, ampicillin- and benzylpenicillin-resistant strain; experiment: technique for evaluating cell wall integrity (lysis solution, nucleoid release, fluorescence microscopy); conditions: 320 μg/mL, 60 minutes
# Protocol: (§1) Different bacterial strains grown on a dish with Mueller-Hinton medium for 24 hours were subsequently exposed to a β-lactam antibiotic for 60 minutes in Mueller-Hinton liquid medium at 37° C., under stirring, and were finally processed by means of the technique for evaluating cell wall integrity according to the present invention.
# (§2) The doses of antibiotic applied were 0, the MIC determined in the Microbiology Laboratory by means of the microdilution and/or E-test technique, and those of the cutoff points of sensitivity and resistance indicated by the Clinical and Laboratory Standards Institute (CLSI) for each strain. A dose 10 times higher than the MIC was also used.
# [2] = test system: Enterococcus faecalis, ampicillin-sensitive and benzylpenicillin-resistant strain; experiment: as above; conditions: 60 minutes
# Protocol: as §1, §2
# [3] = test system: Enterococcus faecium, ampicillin- and benzylpenicillin-resistant strain; experiment: MIC by microdilution and/or E-test
# Text: (§3) The strains and the antibiotics used were: • Gram+ • Enterococcus faecalis.
# as §2
# [4] = test system: Enterococcus faecalis, ampicillin-sensitive and benzylpenicillin-resistant strain; experiment: MIC by microdilution and/or E-test
# Text: as §3, §2
# [5] = test system: Acinetobacter baumannii, imipenem- and ceftazidime-resistant strain; experiment: technique for evaluating cell wall integrity (lysis solution, nucleoid release, fluorescence microscopy); conditions: 60 minutes
# Protocol: as §1, §2
# [6] = test system: Escherichia coli, ceftazidime-sensitive strain with intermediate sensitivity to ampicillin; experiment: as above; conditions: 60 minutes
# Protocol: as §1, §2
# [7] = test system: Acinetobacter baumannii, imipenem-sensitive strain with intermediate sensitivity to ceftazidime; experiment: as above; conditions: 60 minutes
# Protocol: as §1, §2
# [8] = test system: Escherichia coli, ampicillin- and ceftazidime-resistant strain; experiment: as above; conditions: 60 minutes
# Protocol: as §1, §2
# [9] = test system: Acinetobacter baumannii, imipenem- and ceftazidime-resistant strain; experiment: MIC by microdilution and/or E-test
# Text: as §3, §2
# [10] = test system: Escherichia coli, ceftazidime-sensitive strain with intermediate sensitivity to ampicillin; experiment: MIC by microdilution and/or E-test
# Text: as §3, §2
# [11] = test system: Acinetobacter baumannii, imipenem-sensitive strain with intermediate sensitivity to ceftazidime; experiment: MIC by microdilution and/or E-test
# Text: as §3, §2
# [12] = test system: Escherichia coli, ampicillin- and ceftazidime-resistant strain; experiment: MIC by microdilution and/or E-test
# Text: as §3, §2
compound,measurement,setting,value
CC1(C)S[C@@H]2[C@H](NC(=O)Cc3ccccc3)C(=O)N2[C@H]1C(=O)O [benzylpenicillin],background of extracellular DNA fragments,[1],no background
same,heavily lysed cells,[1],5%
same,background of extracellular DNA fragments,[2]; 16 μg/mL,some background
same,cells not lysed,[2]; 16 μg/mL,81%
same,lysed cells with a large halo,[2]; 16 μg/mL,4.5%
same,cells lysed with nucleoid with fragmented DNA,[2]; 32 μg/mL,4%
same,cells not lysed,[2]; 32 μg/mL,65%
same,cells with a large halo,[2]; 32 μg/mL,4%
same,cells with a small halo,[2]; 320 μg/mL,25%
same,non-lysed cells,[2]; 320 μg/mL,72.3%
same,empty faint capsules,"[2]; 16, 32 and 320 μg/mL",0.5-1.5%
same,MIC,[3],> 32 µg/mL
same,MIC,[4],> 32 µg/mL
CC(C)(O/N=C(\C(=O)N[C@@H]1C(=O)N2C(C(=O)[O-])=C(C[n+]3ccccc3)CS[C@H]12)c1csc(N)n1)C(=O)O [ceftazidime],background of extracellular DNA fragments,[5]; 2.560 μg/mL,same background persists
same,cells lysed with nucleoids with fragmented DNA,[5]; 2.560 μg/mL,25%
same,cells not lysed,[5]; 2.560 μg/mL,5%
same,cells with a large halo,[5]; 2.560 μg/mL,63.5%
same,cells with a small halo,[5]; 2.560 μg/mL,6.5%
same,very elongated and filamentous cells,[5]; 8 μg/mL,22%
same,background of extracellular DNA fragments,[5]; 256 μg/mL,subtle background
same,cells not lysed,[5]; 256 μg/mL,4.7%
same,cells with a small halo,[5]; 256 μg/mL,63%
same,heavily lysed cells,[5]; 256 μg/mL,32.3%
same,background of extracellular DNA fragments,[5]; 20 and 32 μg/mL,without background
same,cells with a large halo,[5]; 20 and 32 μg/mL,1.5%
same,cells with a small halo,[5]; 20 and 32 μg/mL,84.5%
same,filamentous cells,"[5]; subsequent doses (20, 32, 256, 2.560 μg/mL)",90%
same,background of extracellular DNA fragments,[6]; 1 μg/mL (MIC),some background
same,filamentous cells,[6]; 1 μg/mL (MIC),99%
same,heavily lysed cells,[6]; 1 μg/mL (MIC),97%
same,background of extracellular DNA fragments,[6]; 8 μg/mL,more background
same,background of extracellular DNA fragments,[6]; 10 μg/mL,extensive background
same,empty capsules,[6]; 10 μg/mL,10.5%
same,lysed cells with nucleoid with fragmented DNA,[6]; 10 μg/mL,11%
same,well lysed cells,[6]; 10 μg/mL,76.5%
same,empty capsules,[6]; 20 and 32 μg/mL,25.3%
same,lysed cells with nucleoid with fragmented DNA,[6]; 20 and 32 μg/mL,20%
same,non-lysed cells,[6]; 20 and 32 μg/mL,2%
same,well lysed cells,[6]; 20 and 32 μg/mL,52.7%
same,background of extracellular DNA fragments,[7]; 8 μg/mL,without background
same,filamentous cells,[7]; 8 μg/mL,82%
same,lysed cells with a small halo,[7]; 8 μg/mL,40%
same,lysed cells with nucleoid with fragmented DNA,[7]; 8 μg/mL,1%
same,filamentous cells,[7]; 12 μg/mL (MIC) and 20 μg/mL,95%
same,background of extracellular DNA fragments,[7]; 12 μg/mL (MIC),subtle background
same,lysed cells with a large halo,[7]; 12 μg/mL (MIC),1.5%
same,lysed cells with a small halo,[7]; 12 μg/mL (MIC),94.5%
same,non-lysed cells,[7]; 12 μg/mL (MIC),4%
same,lysed cells with a large halo,[7]; 20 μg/mL,3%
same,lysed cells with a small halo,[7]; 20 μg/mL,91.5%
same,non-lysed cells,[7]; 20 μg/mL,5.5%
same,background of extracellular DNA fragments,[7]; 32 μg/mL,more background
same,elongated cells,[7]; 32 μg/mL,90%
same,lysed cells with a large halo,[7]; 32 μg/mL,6%
same,lysed cells with a small halo,[7]; 32 μg/mL,88%
same,non-lysed cells,[7]; 32 μg/mL,6%
same,background of extracellular DNA fragments,[7]; 120 μg/mL,extensive background
same,filamentous cells,[7]; 120 μg/mL,91%
same,lysed cells with a large halo,[7]; 120 μg/mL,23%
same,lysed cells with a small halo,[7]; 120 μg/mL,67%
same,lysed cells with nucleoid with fragmented DNA,[7]; 120 μg/mL,36%
same,non-lysed cells,[7]; 120 μg/mL,7%
same,filamentous cells,[8]; 8 μg/mL,13%
same,well lysed cells,[8]; 8 μg/mL,1%
same,background of extracellular DNA fragments,[8]; 20 μg/mL,without background
same,filamentous cells,[8]; 20 μg/mL,99%
same,non-lysed cells,[8]; 20 μg/mL,94%
same,well lysed cells,[8]; 20 μg/mL,5%
same,background of extracellular DNA fragments,[8]; 32 μg/mL (MIC),subtle background
same,empty capsules,[8]; 32 μg/mL (MIC),1%
same,filamentous cells,[8]; 32 μg/mL (MIC),98%
same,lysed cells with nucleoid with fragmented DNA,[8]; 32 μg/mL (MIC),3%
same,non-lysed cells,[8]; 32 μg/mL (MIC),92%
same,well lysed cells,[8]; 32 μg/mL (MIC),4%
same,background of extracellular DNA fragments,[8]; 320 μg/mL,subtle background
same,cells lysed with nucleoid with fragmented DNA,[8]; 320 μg/mL,0.5%
same,filamentous cells,[8]; 320 μg/mL,99%
same,heavily lysed cells,[8]; 320 μg/mL,3.5%
same,moderately lysed cells,[8]; 320 μg/mL,95%
same,non-lysed cells,[8]; 320 μg/mL,1%
same,MIC,[9],> 32 µg/mL
same,MIC,[10],1 µg/mL
same,MIC,[11],12 µg/mL
same,MIC,[12],32 µg/mL
